Results as given in the supplement of paper PMC11208160.

Test: recombinant barcode read abundance after kanamycin selection (control-corrected) (log10(CPM+1)); higher = more efficient recombination; sequences stand for … in AGTGCAGAGAAAATCGGCCAGTTTTCTCTGCCTGCAGTCCGCATGCCGT…AGATTTATGCAGCGGACTGCCTTTCTCCCAAAGTGATAAACCGGACAGTATCATGGACCGGTTTTCCCGGTAATCCGTATTTGCAAGGTTGGTTTCACT; site = the 11-nt target
Method in brief: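 Recombination efficiency comes from barcode counts at recombinant junctions, converted to counts per million, averaged and corrected against the control. Values appear as log10(CPM+1). They were obtained from a pooled E. coli screen in which each oligo paired a target with an IS621 bridge RNA target-binding loop, and cells were plated in duplicate on chloramphenicol/ampicillin LB agar or on chloramphenicol/ampicillin/kanamycin with 0.1 mM IPTG.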
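Further: IS621 recombinase and bridge RNA in Escherichia coli cells.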

Sequence	recombinant barcode read abundance (log10)
CGTAGGACTTGGGTTCTAACCTGTTGCCT (site GGTAGGACTAG)	0.0902
CGTAGGACTTGGGTTCTAACCTGTTGCCT (site TGTAGGACTAG)	0.0115
CGTATGTCTTGGGTTCTAACCTGTTGCCT (site AGTATGTCTAG)	0.0814
CGTATGTCTTGGGTTCTAACCTGTTGCCT (site CGTATGTCTAG)	0.684
CGTATGTCTTGGGTTCTAACCTGTTGCCT (site GGTATGTCTAG)	0.0736
CGTATGTCTTGGGTTCTAACCTGTTGCCT (site TGTATGTCTAG)	0.189
CGTCAACCTTGGGTTCTAACCTGTTGCGT (site CGTAAACCTAC)	0.186
CGTCAACCTTGGGTTCTAACCTGTTGCGT (site CGTCAACCTAC)	0.205
CGTCAACCTTGGGTTCTAACCTGTTGCGT (site CGTGAACCTAC)	0.0619
CGTCAACCTTGGGTTCTAACCTGTTGCGT (site CGTTAACCTAC)	0.242
CGTCATCCTTGGGTTCTAACCTGTTGCCT (site CGTCAACCTAG)	0.0954
CGTCATCCTTGGGTTCTAACCTGTTGCCT (site CGTCACCCTAG)	0.0927
CGTCATCCTTGGGTTCTAACCTGTTGCCT (site CGTCAGCCTAG)	0.112
CGTCATCCTTGGGTTCTAACCTGTTGCCT (site CGTCATCCTAG)	0.0294
CGTCCACCTTGGGTTCTAACCTGTTGCCT (site AGTCCACCTAG)	0.198
CGTCCACCTTGGGTTCTAACCTGTTGCCT (site CGTCCACCTAG)	0.0544
CGTCCACCTTGGGTTCTAACCTGTTGCCT (site GGTCCACCTAG)	0.1
CGTCCACCTTGGGTTCTAACCTGTTGCCT (site TGTCCACCTAG)	0.245
CGTCCTGCTTGGGTTCTAACCTGTTGCCT (site AGTCCTGCTAG)	0
CGTCCTGCTTGGGTTCTAACCTGTTGCCT (site CGTCCTGCTAG)	0.488
CGTCCTGCTTGGGTTCTAACCTGTTGCCT (site GGTCCTGCTAG)	0
CGTCCTGCTTGGGTTCTAACCTGTTGCCT (site TGTCCTGCTAG)	0.0535

Sequence	recombinant barcode read abundance (log10)
CGTCCTTCTTGGGTTCTAACCTGTTGCCT (site AGTCCTTCTAT)	0.351
CGTCCTTCTTGGGTTCTAACCTGTTGCCT (site CGTCCTTCTAG)	0.0421
CGTCGACCTTGGGTTCTAACCTGTTGCCT (site AGTCGACCTAG)	0.092
CGTCGACCTTGGGTTCTAACCTGTTGCCT (site CGTCGACCTAG)	0.0617
CGTCGACCTTGGGTTCTAACCTGTTGCCT (site GGTCGACCTAG)	0.227
CGTCGACCTTGGGTTCTAACCTGTTGCCT (site TGTCGACCTAG)	0.194
CGTCTGACTTGGGTTCTAACCTGTTGCCA (site CGACTGACTAG)	0.158
CGTCTGACTTGGGTTCTAACCTGTTGCCA (site CGTCTGACTTG)	0.241
CGTGAAGCTTGGGTTCTAACCTGTTGCCT (site CGTATAGCTAG)	0.183
CGTGAAGCTTGGGTTCTAACCTGTTGCCT (site CGTGAAGCTAG)	0.795
CGTGCGACTTGGGTTCTAACCTGTTGCAT (site CGTACGACTAT)	0.0517
CGTGCGACTTGGGTTCTAACCTGTTGCAT (site CGTCCGACTAT)	0.0641
CGTGCGACTTGGGTTCTAACCTGTTGCAT (site CGTGCGACTAT)	0.109
CGTGCGACTTGGGTTCTAACCTGTTGCAT (site CGTTCGACTAT)	0.174
CGTGGGGCTTGGGTTCTAACCTGTTGCCT (site CGTATGGCTAG)	0.075
CGTGGGGCTTGGGTTCTAACCTGTTGCCT (site CGTGGGGCTAG)	0.156
CGTTCTCCTTGGGTTCTAACCTGTTGCTA (site CGTTCTCCTTA)	0.637
CGTTCTCCTTGGGTTCTAACCTGTTGCTA (site GCAAGGTCTAT)	0.0644
CTAAAGCCTTGGGTTCTAACCTGTTGCCT (site CTAAAGCCTAG)	1.25
CTAAAGCCTTGGGTTCTAACCTGTTGCCT (site CTAAGGCCTAG)	0.2
CTAAATACTTGGGTTCTAACCTGTTGCCG (site CTAAATACTCG)	0.154
CTAAATACTTGGGTTCTAACCTGTTGCCG (site CTAAGCACTCG)	0.188

Sequence	recombinant barcode read abundance (log10)
CTAAATCCTTGGGTTCTAACCTGTTGCAT (site CTAAATCCTAT)	0.963
CTAAATCCTTGGGTTCTAACCTGTTGCAT (site CTAACTCCTAT)	0.0807
CTAAATCCTTGGGTTCTAACCTGTTGCAT (site CTAAGTCCTAT)	0.0712
CTAAATCCTTGGGTTCTAACCTGTTGCAT (site CTAATTCCTAT)	0.232
CTAACCTCTTGGGTTCTAACCTGTTGCTA (site CTAACCTCTAA)	0.0338
CTAACCTCTTGGGTTCTAACCTGTTGCTA (site CTAACCTCTCA)	0.0433
CTAACCTCTTGGGTTCTAACCTGTTGCTA (site CTAACCTCTGA)	1.01
CTAACCTCTTGGGTTCTAACCTGTTGCTA (site CTAACCTCTTA)	1.42
CTAACGACTTGGGTTCTAACCTGTTGCGG (site CTAACGACTCC)	2.47
CTAACGACTTGGGTTCTAACCTGTTGCGG (site CTAGCGACTCC)	0.158
CTAACTCCTTGGGTTCTAACCTGTTGCAT (site CTAAATCCTAT)	0.0865
CTAACTCCTTGGGTTCTAACCTGTTGCAT (site CTAACTCCTAT)	1.1
CTAACTCCTTGGGTTCTAACCTGTTGCAT (site CTAAGTCCTAT)	0.0705
CTAACTCCTTGGGTTCTAACCTGTTGCAT (site CTAATTCCTAT)	0.0675
CTAAGAGCTTGGGTTCTAACCTGTTGCCG (site CTAAGAGCTCG)	1.65
CTAAGAGCTTGGGTTCTAACCTGTTGCCG (site CTAAGAGCTCT)	0.504
CTAAGCCCTTGGGTTCTAACCTGTTGCGG (site CTAAGCCCTCC)	1.99
CTAAGCCCTTGGGTTCTAACCTGTTGCGG (site CTGAGCCCTCG)	0.0837
CTAAGCTCTTGGGTTCTAACCTGTTGCTG (site CTAAGCTCTAA)	0.259
CTAAGCTCTTGGGTTCTAACCTGTTGCTG (site CTAAGCTCTCA)	1.25
CTAAGCTCTTGGGTTCTAACCTGTTGCTG (site CTAAGCTCTGA)	0.23
CTAAGCTCTTGGGTTCTAACCTGTTGCTG (site CTAAGCTCTTA)	0.349

Sequence	recombinant barcode read abundance (log10)
CTAAGGTCTTGGGTTCTAACCTGTTGCAT (site CTAAGGTCTAA)	0.688
CTAAGGTCTTGGGTTCTAACCTGTTGCAT (site CTAAGGTCTAC)	0.176
CTAAGGTCTTGGGTTCTAACCTGTTGCAT (site CTAAGGTCTAG)	0.214
CTAAGGTCTTGGGTTCTAACCTGTTGCAT (site CTAAGGTCTAT)	2.33
CTAAGTCCTTGGGTTCTAACCTGTTGCAT (site CTAAATCCTAT)	0.809
CTAAGTCCTTGGGTTCTAACCTGTTGCAT (site CTAACTCCTAT)	0.0677
CTAAGTCCTTGGGTTCTAACCTGTTGCAT (site CTAAGTCCTAT)	1.34
CTAAGTCCTTGGGTTCTAACCTGTTGCAT (site CTAATTCCTAT)	0.116
CTAATAGCTTGGGTTCTAACCTGTTGCCA (site AGTCCGTCTAT)	0.186
CTAATAGCTTGGGTTCTAACCTGTTGCCA (site CTAATAGCTTG)	0.262
CTAATGACTTGGGTTCTAACCTGTTGCAC (site CTAATGACTGT)	1.43
CTAATGACTTGGGTTCTAACCTGTTGCAC (site CTAATGCCTAT)	0.227
CTAATGCCTTGGGTTCTAACCTGTTGCAT (site CTAATGACTGT)	0.0624
CTAATGCCTTGGGTTCTAACCTGTTGCAT (site CTAATGCCTAT)	0.175
CTAATTACTTGGGTTCTAACCTGTTGCAC (site CTAATTACTGT)	0.249
CTAATTACTTGGGTTCTAACCTGTTGCAC (site GTAACTACTGT)	0.114
CTAATTACTTGGGTTCTAACCTGTTGCCT (site CTAATTACTAG)	0.946
CTAATTACTTGGGTTCTAACCTGTTGCCT (site CTACTTACTAG)	0.0931
CTAATTACTTGGGTTCTAACCTGTTGCCT (site CTAGTTACTAG)	0.159
CTAATTACTTGGGTTCTAACCTGTTGCCT (site CTATTTACTAG)	0.196
